For this test, the target named is T1, Indoleamine 2,3-dioxygenase (Homo sapiens, UniProt P14902).
T1 construct: endogenous in cells; host or cells: SKOV-3 (ATCC HTB-77), stimulated with interferon gamma
Nature of the test: SKOV-3 cellular Indoleamine 2,3-dioxygenase assay. To be noted: SKOV-3 cells, 50 ng/ml Interferon gamma, 100 μM L-Tryptophan, 24 hours, N-Formylkynurenin fluorescence detection; read-out: cell based activity. In outline: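 SKOV-3 cells stimulated with 50 ng/ml interferon gamma, exposed to compound dilutions with L-tryptophan at 100 µM final for 24 h at 37 °C. N-formylkynurenine detected by 200 mM 3-methylpiperidine, 65 °C for 20 min, fluorescence ex 405/em 535 nm.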

T1 sequence (P14902 whole entry): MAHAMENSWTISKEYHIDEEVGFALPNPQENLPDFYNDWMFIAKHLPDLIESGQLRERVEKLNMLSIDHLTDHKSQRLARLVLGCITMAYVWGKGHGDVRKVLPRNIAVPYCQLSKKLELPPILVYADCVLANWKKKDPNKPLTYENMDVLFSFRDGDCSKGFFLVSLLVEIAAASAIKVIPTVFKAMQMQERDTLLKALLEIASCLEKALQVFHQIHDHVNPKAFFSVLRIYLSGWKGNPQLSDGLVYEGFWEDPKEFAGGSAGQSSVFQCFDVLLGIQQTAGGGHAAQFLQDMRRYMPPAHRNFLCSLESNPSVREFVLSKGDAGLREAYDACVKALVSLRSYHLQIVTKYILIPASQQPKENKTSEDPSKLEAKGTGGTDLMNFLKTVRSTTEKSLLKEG

`NC(=O)NCCOc1nonc1C(=NO)Nc1ccc(F)c(Cl)c1` [Example 5, N-(3-Chloro-4-fluorophenyl)-N′-hydroxy-4-(2-ureidoethoxy)-1,2,5-oxadiazole-3-carboximidamide]: the IC50 is below 100 nM.

Turning to `NS(=O)(=O)NCCOc1nonc1/C(=N/O)Nc1ccc(F)c(Br)c1` [Example 6, N-(3-Bromo-4-fluorophenyl)-N′-hydroxy-4-(2-(sulfamoylamino)ethoxy)-1,2,5-oxadiazole-3-carboximidamide], the IC50 was below 100 nM.

Turning to `NC(=O)C1(C(=O)NCCOc2nonc2C(=NO)Nc2ccc(F)c(Cl)c2)CC1` [Example 7, N-(2-((4-(N-(3-chloro-4-fluorophenyl)-N′-hydroxycarbamimidoyl)-1,2,5-oxadiazol-3-yl)oxy)ethyl)cyclopropane-1,1-dicarboxamide], the IC50 was below 100 nM.

As for `ON=C(Nc1ccc(F)c(Br)c1)c1nonc1OCc1ccccc1` [Example 8, 4-(Benzyloxy)-N-(3-bromo-4-fluorophenyl)-N′-hydroxy-1,2,5-oxadiazole-3-carboximidamide], the IC50 is above 1000 nM.

For `O=C(NCCOc1nonc1C(=NO)Nc1ccc(F)c(Cl)c1)c1nnn[nH]1` [Example 9, N-(2-((4-(N-(3-chloro-4-fluorophenyl)-N′-hydroxycarbamimidoyl)-1,2,5-oxadiazol-3-yl)oxy)ethyl)-1H-tetrazole-5-carboxamide], the IC50 is above 1000 nM.

For the molecule `ON=C(Nc1ccc(F)c(Cl)c1)c1nonc1OCCN1CCOCC1` [Example 10, N-(3-Chloro-4-fluorophenyl)-N′-hydroxy-4-(2-morpholinoethoxy)-1,2,5-oxadiazole-3-carboximidamide], the IC50 lay in the range of 100 to 1000 nM.

On to `NC(=O)CCCOc1nonc1C(=NO)Nc1ccc(F)c(Cl)c1` [Example 11, 4-((4-(N-(3-Chloro-4-fluorophenyl)-N′-hydroxycarbamimidoyl)-1,2,5-oxadiazol-3-yl)oxy)butanamide], for which the IC50 fell in the range of 100 to 1000 nM.

As to `Cc1nnc(CCCOc2nonc2C(=NO)Nc2ccc(F)c(Cl)c2)[nH]1` [Example 12, N-(3-Chloro-4-fluorophenyl)-N′-hydroxy-4-(3-(5-methyl-4H-1,2,4-triazol-3-yl)propoxy)-1,2,5-oxadiazole-3-carboximidamide], the IC50 was 100 to 1000 nM.

For the molecule `O=C(O)CCOc1nonc1C(=NO)Nc1ccc(F)c(Cl)c1` [Example 13, 3-((4-(N-(3-Chloro-4-fluorophenyl)-N′-hydroxycarbamimidoyl)-1,2,5-oxadiazol-3-yl)oxy)propanoic acid], the IC50 is above 1000 nM.

Take `Cc1nnc(NCCOc2nonc2C(=NO)Nc2ccc(F)c(Cl)c2)o1` [Example 14, N-(3-Chloro-4-fluorophenyl)-N′-hydroxy-4-(2-((5-methyl-1,3,4-oxadiazol-2-yl)amino)ethoxy)-1,2,5-oxadiazole-3-carboximidamide]: the IC50 was in the range of 100 to 1000 nM.

Consider `Nc1nnc(NCCOc2nonc2C(=NO)Nc2ccc(F)c(Cl)c2)[nH]1` [Example 15, 4-(2-((5-Amino-4H-1,2,4-triazol-3-yl)amino)ethoxy)-N-(3-chloro-4-fluorophenyl)-N′-hydroxy-1,2,5-oxadiazole-3-carboximidamide], for which the IC50 is 100 to 1000 nM.

On to `CC(CN)Oc1nonc1C(=NO)Nc1ccc(F)c(Cl)c1` (centres unmarked) [Example 17, 4-((1-Aminopropan-2-yl)oxy)-N-(3-chloro-4-fluorophenyl)-N′-hydroxy-1,2,5-oxadiazole-3-carboximidamide], for which the IC50 is 100 to 1000 nM.

As for `O=C(NCCOc1nonc1C(=NO)Nc1ccc(F)c(Cl)c1)N1C[C@@H](O)[C@@H](O)C1` [Example 18, (3S,4R)—N-(2-((4-(N-(3-Chloro-4-fluorophenyl)-N′-hydroxycarbamimidoyl)-1,2,5-oxadiazol-3-yl)oxy)ethyl)-3,4-dihydroxypyrrolidine-1-carboxamide], the IC50 fell in the range of 100 to 1000 nM.

Take `CS(=O)(=O)CCOc1nonc1C(=NO)Nc1ccc(F)c(Cl)c1` [Example 20, N-(3-Chloro-4-fluorophenyl)-N′-hydroxy-4-(2-(methylsulfonyl)ethoxy)-1,2,5-oxadiazole-3-carboximidamide]: the IC50 was above 1000 nM.

As to `CS(=N)(=O)NCCOc1nonc1C(=NO)Nc1ccc(F)c(Cl)c1` (centres unmarked) [Example 21, N-(3-Chloro-4-fluorophenyl)-N-hydroxy-4-(2-(methylsulfonoamidimidamido)ethoxy)-1,2,5-oxadiazole-3-carboximidamide], the IC50 lay within 100 to 1000 nM.

In the case of `COc1nonc1C(=NO)Nc1cccc(CCCl)c1` [Example 22, N-(3-(2-Chloroethyl)phenyl)-N′-hydroxy-4-methoxy-1,2,5-oxadiazole-3-carboximidamide], the IC50 is above 1000 nM.

Turning to `CS(=O)(=O)NCCSc1nonc1/C(=N/O)Nc1ccc(F)c(Br)c1` [Example 100, N-(3-Bromo-4-fluorophenyl)-N′-hydroxy-4-((2-(methylsulfonamido)ethyl)thio)-1,2,5-oxadiazole-3-carboximidamide], the IC50 is below 100 nM.

Regarding `NS(=O)(=O)NCCSc1nonc1/C(=N/O)Nc1ccc(F)c(Br)c1` [Example 101, N-(3-Bromo-4-fluorophenyl)-N′-hydroxy-4-((2-(sulfamoylamino)ethyl)thio)-1,2,5-oxadiazole-3-carboximidamide], the IC50 was below 100 nM.

As to `Nc1c(NCCSc2nonc2C(=NO)Nc2ccc(F)c(Cl)c2)c(=O)c1=O` [Example 102, 4-((2-((2-Amino-3,4-dioxocyclobut-1-en-1-yl)amino)ethyl)thio)—N-(3-chloro-4-fluorophenyl)-N′-hydroxy-1,2,5-oxadiazole-3-carboximidamide], the IC50 was below 100 nM.

For `ON=C(Nc1ccc(F)c(Cl)c1)c1nonc1SCc1ccccc1` [Example 103, 4-(Benzylthio)—N-(3-chloro-4-fluorophenyl)-N′-hydroxy-1,2,5-oxadiazole-3-carboximidamide], the IC50 lay within 100 to 1000 nM.

Regarding `CSc1nonc1/C(=N/O)Nc1ccc(F)c(Br)c1` [Example 103/1, N-(3-bromo-4-fluorophenyl)-N′-hydroxy-4-(methylthio)-1,2,5-oxadiazole-3-carboximidamide], the IC50 is below 100 nM.

With `ON=C(Nc1ccc(F)c(Br)c1)c1nonc1SCC(F)(F)F` [Example 103/2], the IC50 was below 100 nM.

For the molecule `ON=C(Nc1ccc(F)c(Br)c1)c1nonc1SC1CC1` [Example 103/3], the IC50 is below 100 nM.

`O=S(=O)(Cc1ccccc1)c1nonc1C(=NO)Nc1ccc(F)c(Cl)c1` [Example 104, 4-(Benzylsulfonyl)-N-(3-chloro-4-fluorophenyl)-N′-hydroxy-1,2,5-oxadiazole-3-carboximidamide]: the IC50 was above 1000 nM.

For the molecule `C[S+]([O-])c1nonc1C(=NO)Nc1ccc(F)c(Br)c1` (centres unmarked) [Example 105, N-(3-Bromo-4-fluorophenyl)-N′-hydroxy-4-(methylsulfinyl)-1,2,5-oxadiazole-3-carboximidamide], the IC50 fell in the range of 100 to 1000 nM.

Consider `CS(=N)(=O)c1nonc1C(=NO)Nc1ccc(F)c(Br)c1` (centres unmarked) [Example 106, N-(3-Bromo-4-fluorophenyl)-N′-hydroxy-4-(S-methylsulfonimidoyl)-1,2,5-oxadiazole-3-carboximidamide], for which the IC50 was above 1000 nM.

With `O=C(NCCSc1nonc1C(=NO)Nc1ccc(F)c(C(F)F)c1)C(O)CO` (centres unmarked) [Example 107, N-(2-((4-(N-(3-(Difluoromethyl)-4-fluorophenyl)-N′-hydroxycarbamimidoyl)-1,2,5-oxadiazol-3-yl)thio)ethyl)-2,3-dihydroxypropanamide], the IC50 is below 100 nM.

Take `CC1(O)CN(CCSc2nonc2C(=NO)Nc2ccc(F)c(C(F)F)c2)C1` [Example 108, N-(3-(Difluoromethyl)-4-fluorophenyl)-N′-hydroxy-4-((2-(3-hydroxy-3-methylazetidin-1-yl)ethyl)thio)-1,2,5-oxadiazole-3-carboximidamide]: the IC50 was below 100 nM.

For `Nc1c(NCC[S+]([O-])c2nonc2C(=NO)Nc2ccc(F)c(Cl)c2)c(=O)c1=O` (centres unmarked) [Example 109, 4-((2-((2-Amino-3,4-dioxocyclobut-1-en-1-yl)amino)ethyl)sulfinyl)-N-(3-chloro-4-fluorophenyl)-N′-hydroxy-1,2,5-oxadiazole-3-carboximidamide], the IC50 lay within 100 to 1000 nM.

For the molecule `Nc1nnc(NCCSc2nonc2C(=NO)Nc2ccc(F)c(C(F)F)c2)[nH]1` [Example 110, 4-((2-((5-Amino-4H-1,2,4-triazol-3-yl)amino)ethyl)thio)—N-(3-(difluoromethyl)-4-fluorophenyl)-N′-hydroxy-1,2,5-oxadiazole-3-carboximidamide], the IC50 was 100 to 1000 nM.

For the molecule `Cc1nnc(NCCSc2nonc2C(=NO)Nc2ccc(F)c(C(F)F)c2)o1` [Example 111, N-(3-(Difluoromethyl)-4-fluorophenyl)-N′-hydroxy-4-((2-((5-methyl-1,3,4-oxadiazol-2-yl)amino)ethyl)thio)-1,2,5-oxadiazole-3-carboximidamide], the IC50 was below 100 nM.

For the molecule `NS(=O)(=O)NCCSc1nonc1C(=NO)Nc1cccc(C(F)F)c1` [Example 112, N-(3-(Difluoromethyl)phenyl)-N′-hydroxy-4-((2-(sulfamoylamino)ethyl)thio)-1,2,5-oxadiazole-3-carboximidamide], the IC50 was below 100 nM.

For the molecule `NS(=O)(=O)NCCSc1nonc1C(=NO)Nc1ccnc(C(F)(F)F)c1` [Example 112/1, N′—Hydroxy-4-((2-(sulfamoylamino)ethyl)thio)—N-(2-(trifluoromethyl)pyridin-4-yl)-1,2,5-oxadiazole-3-carboximidamide], the IC50 fell in the range of 100 to 1000 nM.

Consider `NC(=O)C(=O)NCCSc1nonc1C(=NO)Nc1ccc(F)c(Cl)c1` [Example 116, N^1-(2-((4-(N-(3-Chloro-4-fluorophenyl)-N′-hydroxycarbamimidoyl)-1,2,5-oxadiazol-3-yl)thio)ethyl)oxalamide], for which the IC50 was below 100 nM.

Turning to `O=C(NCCSc1nonc1C(=NO)Nc1ccc(F)c(Cl)c1)c1nnn[nH]1` [Example 117, N-(2-((4-(N-(3-Chloro-4-fluorophenyl)-N′-hydroxycarbamimidoyl)-1,2,5-oxadiazol-3-yl)thio)ethyl)-1H-tetrazole-5-carboxamide], the IC50 lay in the range of 100 to 1000 nM.
